Results taken from PubChem BioAssay AID1918930 (Molecular Pharmacology Branch, DTP, NCI, 2023).

Tested on: 233499-124-R-J3-PDC complex spheroid viability, % test/control
Test: Anticancer human tumor 233499-124-R-J3-PDC patient-derived colon adenocarcinoma cell line growth inhibition
Details: for IC50: curve of first compound; for viability, T/C: stronger effect = lower value
Method in brief: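 Complex spheroids of tumor cells with HUVEC and human MSCs, exposed to iadademstat combined with other agents. Each agent tested in half-log steps from near clinical Cmax (else 10 microM top), DMSO ≤0.25%.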

[1] = second compound 0.1 µM, first compound 0.00949 µM
[2] = second compound 0.1 µM, first compound 0.03 µM
[3] = second compound 0.1 µM, first compound 0.0949 µM
[4] = second compound 0.1 µM, first compound 0.3 µM
[5] = second compound 0.1 µM, first compound 0.949 µM
[6] = second compound 0.1 µM, first compound 3 µM
[7] = second compound 0.316 µM, first compound 0.00949 µM
[8] = second compound 0.316 µM, first compound 0.03 µM
[9] = second compound 0.316 µM, first compound 0.0949 µM
[10] = second compound 0.316 µM, first compound 0.3 µM
[11] = second compound 0.316 µM, first compound 0.949 µM
[12] = second compound 0.316 µM, first compound 3 µM
[13] = second compound 1 µM, first compound 0.00949 µM
[14] = second compound 1 µM, first compound 0.03 µM
[15] = second compound 1 µM, first compound 0.0949 µM
[16] = second compound 1 µM, first compound 0.3 µM
[17] = second compound 1 µM, first compound 0.949 µM
[18] = second compound 1 µM, first compound 3 µM
[19] = second compound 3.16 µM, first compound 0.00949 µM
[20] = second compound 3.16 µM, first compound 0.03 µM
[21] = second compound 3.16 µM, first compound 0.0949 µM
[22] = second compound 3.16 µM, first compound 0.3 µM
[23] = second compound 3.16 µM, first compound 0.949 µM
[24] = second compound 3.16 µM, first compound 3 µM
[25] = second compound 10 µM, first compound 0.00949 µM
[26] = second compound 10 µM, first compound 0.03 µM
[27] = second compound 10 µM, first compound 0.0949 µM
[28] = second compound 10 µM, first compound 0.3 µM
[29] = second compound 10 µM, first compound 0.949 µM
[30] = second compound 10 µM, first compound 3 µM
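Further: spheroids exposed to agents for one week before readout.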

Structure (SMILES) | IC50 (second compound 0.1 µM) [nM] | IC50 (second compound 0.316 µM) [nM] | IC50 (second compound 1 µM) [nM] | IC50 (second compound 3.16 µM) [nM] | IC50 (second compound 10 µM) [nM] | viability, T/C [1] [%] | viability, T/C [2] [%] | viability, T/C [3] [%] | viability, T/C [4] [%] | viability, T/C [5] [%] | viability, T/C [6] [%] | viability, T/C [7] [%] | viability, T/C [8] [%] | viability, T/C [9] [%] | viability, T/C [10] [%] | viability, T/C [11] [%] | viability, T/C [12] [%] | viability, T/C [13] [%] | viability, T/C [14] [%] | viability, T/C [15] [%] | other results
Nc1ccccc1NC(=O)c1ccc(CNC(=O)OCc2cccnc2)cc1 + NC1CC1c1ccc(-c2cccc(O)c2)cc1 | 453 | 374 | 246 | 387 | 338 | 80.8 | 106 | 100 | 71.4 | 11.4 | 3.1 | 101 | 106 | 93.1 | 59.9 | 11.3 | 1.9 | 101 | 98.8 | 75 | viability, T/C [16]: 47.7%; viability, T/C [17]: 9.92%; viability, T/C [18]: 2.32%; viability, T/C [19]: 84.4%; viability, T/C [20]: 76.1%; viability, T/C [21]: 79.8%; viability, T/C [22]: 60.5%; viability, T/C [23]: 12.9%; viability, T/C [24]: 2.93%; viability, T/C [25]: 71.4%; viability, T/C [26]: 79.6%; viability, T/C [27]: 78.2%; viability, T/C [28]: 54.6%; viability, T/C [29]: 8.25%; viability, T/C [30]: 1.7%
O=C(C=Cc1cccc(S(=O)(=O)Nc2ccccc2)c1)NO + NC1CC1c1ccc(-c2cccc(O)c2)cc1 | > 3000 | > 3000 | > 3000 | 908 | 759 | 108 | 134 | 118 | 113 | 14.4 | 89.1 | 126 | 112 | 124 | 115 | 10.3 | 97 | 95.2 | 109 | 113 | viability, T/C [16]: 113%; viability, T/C [17]: 9.43%; viability, T/C [18]: 91.8%; viability, T/C [19]: 86%; viability, T/C [20]: 104%; viability, T/C [21]: 93.8%; viability, T/C [22]: 108%; viability, T/C [23]: 7.54%; viability, T/C [24]: 88.7%; viability, T/C [25]: 86%; viability, T/C [26]: 91.9%; viability, T/C [27]: 90.9%; viability, T/C [28]: 109%; viability, T/C [29]: 5%; viability, T/C [30]: 73.7%
